We go through four compounds from ChEMBL document CHEMBL1157399, “Antioxidant 2-phenylbenzofurans and a coumestan from Lespedeza virgata” (J Nat Prod, 2008).

The nature of experiment [1]: Antioxidant activity assessed as oxygen radical scavenging activity by ORAC-fluorescence assay. Type of experiment: functional.
In a further experiment the test system is Kidney. The experiment is described as follows: Inhibition of lipid peroxidation in renal failured rat kidney homogenate assessed as inhibition of malondialdehyde level by TBARS assay. The experiment is classed as functional, tissue-based.
The next experiment relates to Plasma. The experiment can be described thus: Inhibition of lipid peroxidation in renal failured rat plasma assessed as inhibition of malondialdehyde level by TBARS assay. Type of experiment: functional, cell-free.
A short description of experiment [2]: Antioxidant activity against 2,2'-azobis (2-amidinopropane) dihydrochloride-induced fluorescence decay at 1.5 uM assessed as trolox equivalents by ORAC-fluorescence assay. Type of experiment: functional.

Take `O=C1O[C@H]([C@@H](O)CO)C(O)=C1O` [ASCORBIC ACID]: the figures for the Activity entry in experiment [1] and in experiment [2] were “Dose-dependent effect” and 165, respectively. Also, the IC50 in the experiment with Kidney is 3050 µM; in the experiment with Plasma it was 5540 µM.
The matching figures for `COc1c(CCC(C)(C)O)c(O)cc2oc(=O)c3c4cc(O)c(O)cc4oc3c12` [LESPEDEZACOUMESTAN]: “Dose-dependent effect”, 450, 450 µM and 190 µM.
Regarding `COc1cc(OC)c(-c2oc3cc(O)c(O)cc3c2C=O)c(OC)c1` [LESPEDEZAVIRGATAL], the figures for the Activity entry in experiment [1] and in experiment [2] were “Dose-dependent effect” and 189, respectively. The IC50 in the experiment on Kidney worked out at 640 µM; with Plasma, 750 µM.
For the compound `COc1ccc(O)c(-c2cc3ccc(O)c(OC)c3o2)c1OC` [LESPEDEZAVIRGATOL], the values for the Activity entry in experiment [1] and in experiment [2] were “Dose-dependent effect” and 763, respectively. Moreover, the concentration for half-maximal inhibition (IC50) in the experiment with Kidney was determined as 160 µM; in the experiment with Plasma, 180 µM.
